Columns and labels:
I-less form of Mac-1 = test: Adhesion of HEK293 cells expressing the I-less form of Mac-1; type: cell-based, Human; conditions: peptide immobilized at 10 μM, 30 min at 37 °C
Method: Fig. 3 Adhesion of Mac-1-expressing cells to Dyn A and Dyn B. a, Mac-1-expressing and wild-type HEK293 cells were labeled with calcein and 5x10^4 cells were added to the wells coated with different concentrations of the Dyn A. After 30 min at 37 °C, nonadherent cells were removed and fluorescence was measured. The data shown are means of triplicate determinations, and error bars represent S.E. The figure is representative of 8 experiments. b , adhesion of HEK293 cells expressing Mac-1, LFA and the I-less form of Mac-1 to Dyn A and Dyn B immobilized at 10 μM was determined as described in A. c, calcein-labeled Mac-1-HEK293 cells were preincubated without or with 10 μg/ml of anti-αM mAb 44a or 1 μg/ml NIF for 15 minutes. For testing the role of glucosaminoglycans in cell adhesion, dynorphin A-coated wells were preincubated with 100 μl of 10 μg/ml of chondroitin sulfate A, chondroitin sulfate B and heparin. […]
Adhesion assays were performed essentially as described previously. […] Fluorescence was measured in a CytoFluorII fluorescence plate reader (Perceptive Biosystems, Framingham, MA). […] After aspirating the solution, labeled cells were added and cell adhesion was analyzed as above.

wild-type HEK293 cells = test: Translocation of Dyn A into wild-type HEK293 cells (immunolabeling); type: cell-based, Human; conditions: 20 μM Dyn A, 40 min at 37 °C
Method: Fig. 5 Translocation of Dyn A into cells. Mac-1-expressing (a) and wild-type HEK293 (b) cells were incubated with 20 μM and 100 μM of Dyn A for 40 min at 37 °C, fixed, permeabilized and incubated with anti-dynorphin antibodies followed by Alexa Fluor 488-conjugated secondary goat anti-rabbit antibodies. No labeling was detected in the absence of primary antibody. c, Enlarged images of Dyn A-accumulated Mac-1- and wild-type HEK cells shown in a and b. d, Quantification of fluorescent cells shown in a and b
Mac-1-HEK 293 and wild-type HEK 293 cells were incubated for 10 min with different concentrations (0–100 μM) of Dyn A and allowed to adhere to glass coverslips coated with poly-Lysine for 30 min. Adherent cells were fixed in 2 % paraformaldehyde solution, permeabilized with 0.1 % Tween-20, and blocked with 10 % normal goat serum plus 1 % BSA. The coverslips were incubated with 5 μg/ml polyclonal anti-Dyn A antibody followed by an secondary goat anti-rabbit antibody conjugated to Alexa Fluor 488 (1:1000). Images were taken using a Leica DM 4000B microscope (Leica, Buffalo Grove, IL).

macrophages = conditions: cited from earlier work
Source text: (§1) Apart from their effects on κ-opioid receptors on neurons, Dyn A exerts numerous effects on leukocytes, particularly myeloid cells. […] In addition, Dyn A (residues 1–13) and Dyn A (residues 1–9) stimulate ...

macrophage = conditions: cited from earlier work
Source text: as §1

rat mast cells = conditions: cited from earlier work
Source text: as §1

k-opioid receptors = tested on: k-opioid receptors; design: method as in PMID 10973443, PMID 16364815, PMID 22424981; conditions: cited from earlier work
cells = conditions: cited from earlier work

## CC[C@H](C)[C@H](NC(=O)[C@H](CCCNC(=N)N)NC(=O)[C@H](CCCNC(=N)N)NC(=O)[C@H](CC(C)C)NC(=O)[C@H](Cc1ccccc1)NC(=O)CNC(=O)CNC(=O)[C@@H](N)Cc1ccc(O)cc1)C(=O)N[C@@H](CCCNC(=N)N)C(=O)N1CCC[C@H]1C(=O)N[C@@H](CCCCN)C(=O)N[C@@H](CC(C)C)C(=O)N[C@@H](CCCCN)C(=O)N[C@@H](Cc1c[nH]c2ccccc12)C(=O)N[C@@H](CC(=O)O)C(=O)N[C@@H](CC(N)=O)C(=O)N[C@@H](CCC(N)=O)C(=O)O [Dyn A]
I-less form of Mac-1
  Adhesion of HEK293 cells expressing the I-less form of Mac-1: 7 ± 1%
wild-type HEK293 cells
  Localization of Dyn A in wild-type HEK293 cells: entering inside wild-type HEK293 cells
macrophages
  Secretion of IL-1 and TNFα: increase secretion of IL-1 and TNFα by macrophages
macrophage
  Superoxide generation: stimulate macrophage superoxide generation
  Zymosan-triggered oxidative burst: enhance macrophage zymosan-triggered oxidative burst
macrophage; induced by LPS and IFN-γ
  Nitric oxide release: decrease nitric oxide release induced by LPS and IFN-γ
Rat mast cells
  Degranulation and histamine release: induce degranulation and histamine release from rat mast cells
k-opioid receptors
  κ-opioid receptor binding: binds preferentially to the k-opioid receptors
cells
  Cell entry: enters the cells
